Ten molecules from patent US10519154B2, “7-substituted 1-pyridyl-naphthyridine-3-carboxylic acid amides and use thereof” (Bayer Pharma Aktiengesellschaft, priority 2016, dated 2019) can be followed below.

The target in the assay is T1, human M2 receptor (Homo sapiens, UniProt P08172).
T1 sequence (P08172 1-466): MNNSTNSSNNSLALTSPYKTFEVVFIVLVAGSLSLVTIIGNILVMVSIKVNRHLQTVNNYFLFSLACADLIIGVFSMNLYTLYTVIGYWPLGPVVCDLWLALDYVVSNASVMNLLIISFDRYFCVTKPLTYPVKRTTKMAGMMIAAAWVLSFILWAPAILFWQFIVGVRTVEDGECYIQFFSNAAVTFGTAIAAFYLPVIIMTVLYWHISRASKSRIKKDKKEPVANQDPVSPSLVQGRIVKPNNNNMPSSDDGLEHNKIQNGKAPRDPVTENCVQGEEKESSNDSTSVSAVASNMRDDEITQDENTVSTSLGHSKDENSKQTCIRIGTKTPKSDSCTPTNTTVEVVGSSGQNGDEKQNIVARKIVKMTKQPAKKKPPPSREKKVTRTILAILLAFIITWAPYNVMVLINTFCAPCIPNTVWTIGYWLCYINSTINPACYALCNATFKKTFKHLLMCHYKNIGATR
Nature of the assay: Functional M2-GIRK1/4 activation test: allosteric potency (EC50) and efficiency. Particulars: for EC50: Receptor activity EC50, CHO-DUKX-M2-GIRK cells, acetylcholine at EC20, in some cases mean of two or more determinations; for Emax: read-out: Efficiency, boosting of the acetylcholine effect at EC20 acetylcholine concentration.

Turning to `O=C(NC1(C(F)(F)F)CCCC1)c1cn(-c2ncc(F)cc2F)c2nc(N3C[C@@H](O)[C@H](O)C3)ccc2c1=O` [Example 87, 1-(3,5-Difluoropyridin-2-yl)-7-[(3R,4R)-3,4-dihydroxypyrrolidin-1-yl]-4-oxo-N-[1-(trifluoromethyl)cyclopentyl]-1,4-dihydro-1,8-naphthyridine-3-carboxamide], the EC50 was found to be 63 nM. Besides, the Emax (CHO-DUKX-M2-GIRK cells) turned out to be 100%.

The molecule `CC[C@H](NC(=O)c1cn(-c2ncc(F)cc2F)c2nc(N3CC(O)C(C)C3=O)ccc2c1=O)C(F)(F)F` (single isomer, unassigned) [Example 109] had an EC50 of 135 nM. Besides, the Emax (CHO-DUKX-M2-GIRK cells) was 96%.

The molecule `O=C(NC(C(F)(F)F)C(F)(F)F)c1cn(-c2ncc(F)cc2F)c2nc(N3CC4CC4(O)C3)ccc2c1=O` (single isomer, unassigned) [Example 59, 1-(3,5-Difluoropyridin-2-yl)-N-(1,1,1,3,3,3-hexafluoropropan-2-yl)-7-[1-hydroxy-3-azabicyclo[3.1.0]hex-3-yl]-4-oxo-1,4-dihydro-1,8-naphthyridine-3-carboxamide] gave an EC50 of 23 nM. This molecule also came in with an Efficiency (boosting of the acetylcholine effect at EC20 acetylcholine concentration, CHO-DUKX-M2-GIRK cells) of 99.00%.

The molecule `CC(NC(=O)c1cn(-c2ncc(F)cc2F)c2nc(N3CCC[C@@H]3CO)ccc2c1=O)C(F)(F)C(F)(F)F` (single isomer, unassigned) [Example 175] gave an EC50 of 60 nM. Also, for the setting “CHO-DUKX-M2-GIRK cells”, the Emax came to 98.5%.

`O=C(NC(C1CC1)C(F)(F)F)c1cn(-c2ncc(F)cc2F)c2nc(N3CC[C@H](O)C3=O)ccc2c1=O` (stereo partly drawn) [Example 25, N-[1-Cyclopropyl-2,2,2-trifluoroethyl]-1-(3,5-difluoropyridin-2-yl)-7-[(3S)-3-hydroxy-2-oxopyrrolidin-1-yl]-4-oxo-1,4-dihydro-1,8-naphthyridine-3-carboxamide] had an EC50 of 210 nM. Besides, the Emax (CHO-DUKX-M2-GIRK cells) worked out at 98%.

As for `CC[C@H](NC(=O)c1cn(-c2c(F)cncc2F)c2nc(N3CCNC3=O)ccc2c1=O)C(F)(F)F` [Example 128, 1-(3,5-Difluoropyridin-4-yl)-4-oxo-7-(2-oxoimidazolidin-1-yl)-N-[(2S)-1,1,1-trifluorobutan-2-yl]-1,4-dihydro-1,8-naphthyridine-3-carboxamide], the response was half-maximal at 520 nM (EC50). Also, the Emax (CHO-DUKX-M2-GIRK cells) amounted to 89%.

As for `CC[C@H](NC(=O)c1cn(-c2ncc(F)cc2F)c2nc(N3CC[C@H](F)C3)ccc2c1=O)C(F)(F)F` [Example 129, 1-(3,5-Difluoropyridin-2-yl)-7-[(3S)-3-fluoropyrrolidin-1-yl]-4-oxo-N-[(2S)-1,1,1-trifluorobutan-2-yl]-1,4-dihydro-1,8-naphthyridine-3-carboxamide], a half-maximal response (EC50) required 21 nM. For the same molecule, the Emax (CHO-DUKX-M2-GIRK cells) is 96.5%.

On to `CC(NC(=O)c1cn(-c2ncc(F)cc2F)c2nc(N3CCNC3=O)ccc2c1=O)C(F)(F)C(F)(F)F` (racemic) [Example 161, 1-(3,5-Difluoropyridin-2-yl)-4-oxo-7-(2-oxoimidazolidin-1-yl)-N-[3,3,4,4,4-pentafluorobutan-2-yl]-1,4-dihydro-1,8-naphthyridine-3-carboxamide], for which the EC50 was found to be 70 nM. Besides, the Emax (CHO-DUKX-M2-GIRK cells) was found to be 100%.

The molecule `O=C(NC(C(F)(F)F)C(F)(F)F)c1cn(-c2ncc(F)cc2F)c2nc(N3CCC(CO)(CO)CC3)ccc2c1=O` [Example 186, 7-[4,4-Bis(hydroxymethyl)piperidin-1-yl]-1-(3,5-difluoropyridin-2-yl)-N-(1,1,1,3,3,3-hexafluoropropan-2-yl)-4-oxo-1,4-dihydro-1,8-naphthyridine-3-carboxamide] showed an EC50 of 110 nM. Further, the Emax (CHO-DUKX-M2-GIRK cells) came out at 100%.

In the case of `O=C(NC(C(F)(F)F)C(F)(F)F)c1cn(-c2ncc(F)cc2F)c2nc(N3CCC(O)(CO)CC3)ccc2c1=O` [Example 179], it took 95 nM to reach a half-maximal effect (EC50). Besides, the Emax (CHO-DUKX-M2-GIRK cells) turned out to be 100%.

The term EC50 denotes the concentration needed to bring the measured effect to its halfway point.
